# Results as given in PubChem BioAssay (NCI).
#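 The compound was tested at five concentrations on cells cultured in 96-well plates, with a 48-hour exposure period. GI50 marks 50% less growth. Definition used: TGI = concentration required for complete inhibition of growth.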
# Key:
# Experiment in all cases: NCI-60 cell line screen, 48 h
# 786-0 renal = system: 786-0 renal
# RXF 393 renal = system: RXF 393 renal
# SF-295 CNS = system: SF-295 CNS
# SK-MEL-2 melanoma = system: SK-MEL-2 melanoma
# SK-MEL-5 melanoma = system: SK-MEL-5 melanoma
# SK-OV-3 ovarian = system: SK-OV-3 ovarian
# SW-620 colon = system: SW-620 colon
# UACC-257 melanoma = system: UACC-257 melanoma
# CCRF-CEM leukemia = system: CCRF-CEM leukemia
# MDA-MB-435 = system: MDA-MB-435
Structure (SMILES),TGI (786-0 renal) [µM],TGI (RXF 393 renal) [µM],TGI (SF-295 CNS) [µM],TGI (SK-MEL-2 melanoma) [µM],TGI (SK-MEL-5 melanoma) [µM],TGI (SK-OV-3 ovarian) [µM],TGI (SW-620 colon) [µM],TGI (UACC-257 melanoma) [µM],TGI (CCRF-CEM leukemia) [µM],GI50 (786-0 renal) [µM],GI50 (CCRF-CEM leukemia) [µM],GI50 (MDA-MB-435) [µM],TGI (MDA-MB-435) [µM],GI50 (RXF 393 renal) [µM],GI50 (SF-295 CNS) [µM],GI50 (SK-MEL-2 melanoma) [µM],GI50 (SK-MEL-5 melanoma) [µM],GI50 (SW-620 colon) [µM],GI50 (UACC-257 melanoma) [µM],GI50 (SK-OV-3 ovarian) [µM]
Cc1cccc(CC(C)(C)C)c1NC(=O)C(=O)C(C(=O)c1ccc2ccccc2c1)C1OC(=O)c2ccccc21 (configuration not stated),21.7,14.5,21.6,34.2,26.7,> 100,38.7,26.2,–,–,–,–,–,–,–,–,–,–,–,–
Cc1[nH]c(=O)nc(N/N=C/c2ccc(O)cc2)c1C(=O)Nc1ccc(Cl)cc1,> 100,–,–,> 100,> 100,> 100,> 100,> 100,> 100,–,–,–,–,–,–,–,–,–,–,–
CCN1CC2(C)CC[C@@H](OC)C34[C@@H]2[C@H](OC(C)=O)C2(OCO[C@@]25C[C@H](OC)C2C[C@]3(O)[C@@H]5[C@H]2O)[C@H]14,> 100,> 100,> 100,> 100,–,–,> 100,> 100,–,–,–,–,–,–,–,–,–,–,–,–
COC(=O)C1=C(O)C(C(=O)OC)[C@@]2(O)[C@@H](C(=O)OC)C(c3ccc(OC(=O)C(CC(C)C)NC(C)=O)cc3)C[C@@H]1[C@@H]2C(=O)OC (some centres not stated),> 100,> 100,> 100,> 100,> 100,–,> 100,> 100,> 100,46.2,41.4,> 100,> 100,> 100,74.8,81.9,18.5,55.5,> 100,–
COc1ccc(-n2nc(C)c3c2N(C)C2(C)C[C@@H]4C3(C)[C@@H]3CC4(C2)N(C)c2c(c(C)nn2-c2ccc(OC)cc2)[C@H]3C)cc1 (some centres not stated),29.6,13.3,–,23.3,–,9.54,–,–,–,5.47,–,–,–,2.92,–,7.29,–,–,–,2.53
O=C1c2ccccc2C(=O)c2c1ccc1c3ccccc3n(Cc3ccccc3)c21,> 100,–,> 100,> 100,> 100,> 100,> 100,–,> 100,–,–,–,–,–,–,–,–,–,–,–
CCC1NCC(=O)c2c1[nH]c1ccccc21 (configuration not stated),> 100,–,> 100,> 100,> 100,> 100,> 100,> 100,> 100,–,–,–,–,–,–,–,–,–,–,–
CCC1(N2C(=O)c3c(F)c(F)c(F)c(F)c3C2=O)C(=O)NC(=O)N(c2ccccc2)C1=O (configuration not stated),13.9,15.5,7.55,> 100,–,31,3.96,17.1,3.8,3.34,1.31,2.89,8.02,2.75,2.57,3.84,–,1.76,5.06,10.6
CC(=O)Nc1ccc(C(=O)N2N=C(C)/C(=C/c3cccc(O)c3)C2=O)cc1,> 100,–,> 100,> 100,> 100,–,> 100,> 100,> 100,–,–,–,–,–,–,–,–,–,–,–
COC(=O)C1CCC(=NC2c3ccccc3-c3ccccc32)N1 (configuration not stated),> 100,–,> 100,> 100,–,> 100,> 100,> 100,> 100,–,–,–,–,–,–,–,–,–,–,–
COC(=O)C(=O)C(C(=O)C(=O)Nc1ccccc1C(N)=O)c1nc2ccc(C(=O)c3ccccc3)cc2[nH]c1=O (configuration not stated),> 100,> 100,> 100,> 100,> 100,–,> 100,> 100,> 100,–,–,–,–,–,–,–,–,–,–,–
